Data: PMC9897792, “Discovery of novel 2-(4-(benzyloxy)-5-(hydroxyl) phenyl) benzothiazole derivatives as multifunctional MAO-B inhibitors for the treatment of Parkinson’s disease” (Journal of Enzyme Inhibition and Medicinal Chemistry, 2023)

Assays:
Format in all cases: cell-based
PC-12 cells [1] = assay: Cytotoxicity towards PC-12 cells (MTT); conditions: at the concentration of 10.0 µM
Procedure: (§1) MTT method was used to detect the in vitro neuroprotective effect of 3h on H2O2 induced PC-12 cells injury, with resveratrol as positive control. Firstly, the cytotoxicity of 3h to PC-12 cells was measured. […] […].
(§2) 3-(4,5-dimethylthiazol-2-yl)-2,5-diphenyltetrazolium bromide (MTT) method was conducted to measure the in vitro neuroprotective effect of 3h[44]. Firstly the cytotoxicity of 3h towards PC-12 cells was detected. In detail, PC-12 cells were seeded into 96-well cell culture plate in DMEM (100 µL, 1 × 10^5 cells per mL) firstly. Then, these cells were incubated at 37 °C for 24 h. After incubation, test compound solutions (10 µL) were added to the plate, and the mixture was incubated for another 2 h at 37 °C. Then, MTT solution (100 µL, 5 mg/ml in PBS) was added to each well, which would be incubated at 37 °C for final 4 h. After the final incubation, the supernatants were removed, and the formazan was dissolved in DMSO (150 µL). Then, the absorbance at 490 nm was determined by using a Varioskan Flash Multimode Reader (Thermo Scientific). As for the assay to evaluate the neuroprotective effect of 3h, the procedures were almost similar, but after the incubation of cells with 3h, H2O2 (100 µM) was added and the mixture was further incubated for 24 h.

PC-12 cells [2] = assay: Neuroprotective effect on H2O2 induced PC-12 cells injury (MTT); conditions: 10.0 µM; H2O2 100 µM (model 50.1%)
Procedure: as §1, §2

BV-2 cells = assay: Cytotoxicity towards BV-2 cells with or without LPS (MTT); conditions: up to 10.0 µM in the presence or absence LPS (1.0 µg/mL)
Procedure: The in vitro anti-neuroinflammatory activity of 3h was detected by using LPS-induced inflammation mode in BV-2 cells, with resveratrol as the positive control compound[45]. The cytotoxicities of resveratrol and 3h to BV-2 cells were firstly detected by MTT method.
Firstly, the MTT method was carried out to determine the cytotoxicity of 3h towards BV-2 cell line[45]. BV-2 cells in the logarithmic phase were seeded into 96-well cell culture plate, followed by the incubation at 37 °C for 24 h at the atmosphere of 5% CO2. After incubation, the culture was replaced by fresh one (90 µL without serum), and test compound solution (10 µL) was added. Then, the mixture was incubated for another 30 min, and MTT (100 µL, 0.5 mg/ml in PBS) was added to each well. After the final incubation at 37 °C for 4 h, the supernatants were removed, and the formazan was dissolved in 200 µL of DMSO. Then, the absorbance at 490 nm was determined by using a Varioskan Flash Multimode Reader (Thermo Scientific). As for the method to evaluate the cytotoxicity of 3h towards LPS-stimulated BV-2 cells, the procedures were almost similar, but after the incubation of cells with 3h, LPS (10 µL, 1.0 µg/mL) was added, and the mixture was further incubated for 24 h.

[3] = system: NO release in LPS-activated BV-2 microglia cells; assay: LPS-induced NO release in BV-2 cells (Griess method); conditions: Mus musculus, 10.0 µM, LPS 1.0 µg/mL, read-out: inhibitory rate of LPS-induced NO release
Procedure: Then, Griess method was performed to measure the inhibitory effect of 3h on LPS-induced NO release in BV-2 cells. […] It reflected that LPS could induce the activation of BV-2 cells and induce neuroinflammation.
(§3) ELISA and Griess reaction methods were performed to detect the inhibitory effect of 3h on the release of TNF-α and NO in LPS-stimulated BV-2 cells[46]^,[47]. BV-2 cells in the logarithmic phase were seeded into 96-well cell culture plate, and these cells were incubated at 37 °C for 24 h at the atmosphere of 5% CO2. After incubation, the culture solution was replaced by fresh one (90 µL without serum), and test compound solution (10 µL) was added. After addition, the plate was incubated for 30 min, then LPS (10 µL, 1.0 µg/ml in PBS) was added to each well, and the mixture would be incubated for another 24 h at 37 °C. After the final incubation, the supernatants were taken out to measure the level of TNF-α and NO according to the procedures depicted on the kits (kits were purchased from Nanjing Jiancheng Bioengineering Institute).

[4] = system: TNF-α production in LPS-activated BV-2 microglia cells; assay: LPS-induced TNF-α production in BV-2 cells (ELISA); conditions: Mus musculus, 10.0 µM, LPS 1.0 µg/mL, read-out: inhibition rate of LPS-induced TNF-α production
Procedure: ELISA method was carried out to detect the inhibitory effects of 3h on LPS-induced TNF-α production. As shown in Figure 8(B), the level of TNF-α expression was dramatically raised when BV-2 cells were exposed to LPS (1.0 µg/mL).
as §3

[5] = system: ROS release in LPS-treated BV-2 cells; assay: LPS-induced ROS release in BV-2 cells (DCFH-DA probe); conditions: concentration not given, LPS 1.0 µg/mL
Procedure: The inhibitory effect of 3h on LPS-induced ROS release in BV-2 cells in vitro was detected by using 2′,7′-dichlorofluorescein diacetate (DCFH-DA) as probe to quantify the ROS level in LPS-treated BV-2 cells. Noticeably, the fluorescence intensity of control group was relatively low, indicating low level of ROS. […] The fluorescence values were further detected by using microplate reader (Figure 9(B)), and then the inhibition rates were calculated. […] BV-2 cells were incubated with test compound solution (10 µL) for 30 min, then LPS (10 µL, 1.0 µg/ml in PBS) was added to each well, and each well would be incubated for another 30 min at 37 °C. […] The fluorescence was measured with excitation and emission wavelengths at 488 and 525 nm on an inverted fluorescence microscope.

Oc1ccc(/C=C/c2cc(O)cc(O)c2)cc1 [resveratrol, reference compound]
PC-12 cell viability (cytotoxicity) (PC-12 cells [1]): did not significantly alter the PC-12 cell viability
cell viability of H2O2-injured PC-12 cells (PC-12 cells [2]): 64.3 % of control value
BV-2 cell viability (cytotoxicity) (BV-2 cells): did not significantly alter the BV-2 cell viability
inhibition at 10 µM [3]: 51.2%
inhibition at 10 µM [4]: 50.3%
inhibition rate of LPS-induced ROS release [5]: 59.8%
